Results reported in the NIST ThermoML archive (doi:10.1016/j.fluid.2015.07.049).
Numbers after ± are expanded uncertainties.

Conditions: 313.15 K; Liquid

vapor or sublimation pressure [kPa] | Compound
12.31 ± 0.055 | CCCCCCC [heptane]
12.94 ± 0.057 | CC(C)CC(C)(C)C [2,2,4-trimethylpentane]
0.898 ± 0.018 | CCCCCO [pentan-1-ol]
